Results on ten compounds are retold here after ChEMBL document CHEMBL1201862, “PubChem BioAssay data set” (2004).

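Step 1: Grow cells in 96-well plates. Step 2: Expose to compound for 48 hours at 5 concentrations. Step 3: Interpolate endpoints linearly; if unreached, use highest concentration. The concentration for 50% growth inhibition is given as GI50.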 Calls of active or inactive are those of the source. Cut-off read from the data, not from the text of the source: active = GI50 up to about 1.1 µM and inactive = higher.

Among the test systems are A498; RPMI-8226; OVCAR-8; ACHN; SNB-19; SN12C; SK-MEL-5; RXF 393; SF-268; SF-295; IGROV-1; UACC-257; HOP-92; TK-10; HOP-62; HCT-116; PC-3; Hs-578T; SK-OV-3.
Assay in all cases: NCI tumour cell line growth inhibition, 48 h

With `COc1cc(/C=C2\C[C@H]3[C@@H]4CC=C5C=C(N6CCCC6)CC[C@]5(C)[C@H]4CC[C@]3(C)C2=O)cc(OC)c1OC`, the GI50 in the assay with A498 is 8.79 µM (inactive); in the assay with RPMI-8226, 2.53 µM (inactive); with OVCAR-8 it was 2.16 µM (inactive); in the assay with ACHN, 2.32 µM (inactive); in the assay with SNB-19, 3.73 µM (inactive); with SN12C, 2.85 µM (inactive). The GI50 with SK-MEL-5 is 2.76 µM (inactive); with RXF 393, 1.9 µM (inactive); in the assay on SF-268, 2.23 µM (inactive); in the assay on SF-295 it was 2.22 µM (inactive); in the assay on IGROV-1, 1.79 µM (inactive); in the assay with UACC-257, 3.1 µM (inactive). The GI50 was 2.21 µM (inactive) in the assay on HOP-92; 6.49 µM (inactive) in the assay with TK-10; 2.48 µM (inactive) in the assay on HOP-62; 1.91 µM (inactive) with HCT-116; 3.12 µM (inactive) in the assay on PC-3; 2.4 µM (inactive) in the assay on Hs-578T. Besides, the GI50 in the assay on SK-OV-3 is 6.89 µM (inactive).

`CC(C)C(C(=O)O)N1C(=O)c2ccccc2C1=O` (stereo not given): the GI50 in the assay with A498, in the assay on RPMI-8226, with OVCAR-8, with ACHN, in the assay on SNB-19 and in the assay with SN12C was > 100 µM (inactive) in each case. The GI50 with SK-MEL-5, in the assay on RXF 393, with SF-268, in the assay on SF-295, in the assay on IGROV-1 and in the assay on UACC-257 was > 100 µM (inactive) each time. Moreover, the GI50 in the assay with HOP-92, in the assay on TK-10, in the assay with HOP-62, in the assay on HCT-116, in the assay with PC-3 and in the assay with Hs-578T was > 100 µM (inactive) each time. Further, the GI50 in the assay with SK-OV-3 was > 100 µM (inactive).

Regarding `Oc1ccc(Nc2nc(Cl)c3nc[nH]c3n2)cc1`, the GI50 is > 100 µM (inactive) with A498; 61.4 µM (inactive) in the assay with RPMI-8226; > 100 µM (inactive) with OVCAR-8; 93.1 µM (inactive) with ACHN; > 100 µM (inactive) in the assay on SNB-19; > 100 µM (inactive) with SN12C. The GI50 is > 100 µM (inactive) in the assay with SK-MEL-5; > 100 µM (inactive) in the assay with RXF 393; > 100 µM (inactive) in the assay on SF-268; > 100 µM (inactive) with SF-295; 67.6 µM (inactive) in the assay on IGROV-1; > 100 µM (inactive) in the assay on UACC-257. In addition, the GI50 with HOP-92 is 14 µM (inactive); in the assay on TK-10, > 100 µM (inactive); in the assay on HOP-62, > 100 µM (inactive); in the assay with HCT-116, > 100 µM (inactive); in the assay with PC-3, > 100 µM (inactive); in the assay with Hs-578T it was > 100 µM (inactive). For the same compound, the GI50 in the assay on SK-OV-3 was > 100 µM (inactive).

Consider `COP(=O)(O)/C=C/C(NC(=O)C(Cl)(Cl)Cl)c1ccccc1` (stereo not given), for which the GI50 in the assay on A498, in the assay on RPMI-8226, in the assay with OVCAR-8, with ACHN, in the assay with SNB-19 and with SN12C was > 100 µM (inactive) each time. Moreover, the GI50 with SK-MEL-5, in the assay with RXF 393, in the assay on SF-268, with SF-295, with IGROV-1 and in the assay on UACC-257 was > 100 µM (inactive) throughout. Besides, the GI50 in the assay on HOP-92, in the assay on TK-10, with HOP-62, with HCT-116, in the assay with PC-3 and in the assay with Hs-578T was > 100 µM (inactive) each time. Also, the GI50 in the assay with SK-OV-3 is > 100 µM (inactive).

`COc1cccc(/C=C/c2ccnc3ccccc23)c1OC`: the GI50 in the assay with A498 was > 10 µM (inactive); in the assay with RPMI-8226, 2.27 µM (inactive); in the assay on OVCAR-8, > 10 µM (inactive); with ACHN, > 10 µM (inactive); with SNB-19, > 10 µM (inactive); with SN12C, > 10 µM (inactive). For the same compound, the GI50 with SK-MEL-5 was 6.89 µM (inactive); in the assay on RXF 393, > 10 µM (inactive); with SF-268, > 10 µM (inactive); with SF-295, > 10 µM (inactive); in the assay with IGROV-1, > 10 µM (inactive); in the assay with UACC-257, > 10 µM (inactive). Further, the GI50 is 1.08 µM (active) with HOP-92; > 10 µM (inactive) in the assay with TK-10; > 10 µM (inactive) in the assay on HOP-62; > 10 µM (inactive) with HCT-116; > 10 µM (inactive) in the assay with PC-3; > 10 µM (inactive) in the assay on Hs-578T. Further, in the assay with SK-OV-3, the GI50 was > 10 µM (inactive).

As to `Cc1cccc2c(NCCN(C)C)c3cccc(C(=O)NCCN(C)C)c3nc12`, the GI50 with A498 was 0.918 µM (active); in the assay with RPMI-8226, 0.0838 µM (active); with OVCAR-8 it was 0.107 µM (active); in the assay with ACHN, 0.0489 µM (active); in the assay on SNB-19, 0.413 µM (active); in the assay on SN12C, 0.0603 µM (active). Moreover, the GI50 with SK-MEL-5 is 0.157 µM (active); with RXF 393, 0.475 µM (active); in the assay with SF-268, 0.316 µM (active); in the assay with SF-295, 0.105 µM (active); in the assay on IGROV-1, 0.171 µM (active); in the assay on UACC-257, 0.693 µM (active). Besides, the GI50 in the assay on HOP-92 is 0.218 µM (active); with TK-10 it was 0.445 µM (active); in the assay on HOP-62 it was 0.258 µM (active); in the assay on HCT-116 it was 0.0673 µM (active); with PC-3 it was 0.356 µM (active); in the assay on Hs-578T it was 0.495 µM (active). For the same compound, the GI50 in the assay with SK-OV-3 was 0.226 µM (active).

As for `N=C1C=CC(=C(c2ccc(N)cc2)c2ccc(N)cc2)C=C1`, the GI50 is 6.97 µM (inactive) with A498; 2.29 µM (inactive) with RPMI-8226; 1.91 µM (inactive) in the assay with OVCAR-8; 8.17 µM (inactive) in the assay on ACHN; 0.532 µM (active) with SNB-19; 0.444 µM (active) in the assay on SN12C. Besides, the GI50 with SK-MEL-5 was 1.09 µM (active); in the assay on RXF 393 it was 6.5 µM (inactive); in the assay on SF-268, 0.542 µM (active); with SF-295, 3.99 µM (inactive); with IGROV-1, 9.86 µM (inactive); in the assay with UACC-257, 4.59 µM (inactive). The GI50 in the assay on HOP-92 is 3.22 µM (inactive); in the assay with TK-10 it was 10.2 µM (inactive); in the assay on HOP-62, 3.3 µM (inactive); in the assay on HCT-116 it was 3.87 µM (inactive); in the assay on PC-3 it was 3.12 µM (inactive); in the assay with Hs-578T it was 0.51 µM (active). Besides, the GI50 in the assay on SK-OV-3 was 13.1 µM (inactive).

Consider `O=C1CN2C(c3ccccc3)=NN(c3ccc([N+](=O)[O-])cc3)C2(c2ccccc2)c2cc(Cl)ccc2N1CC1CC1` (stereo not given), for which the GI50 with A498 was > 100 µM (inactive); in the assay on RPMI-8226, 29 µM (inactive); in the assay with OVCAR-8, > 100 µM (inactive); in the assay on ACHN, > 100 µM (inactive); in the assay with SNB-19 it was > 100 µM (inactive); in the assay with SN12C, > 100 µM (inactive). Also, the GI50 in the assay with SK-MEL-5, in the assay on RXF 393, in the assay on SF-268, in the assay with SF-295, with IGROV-1 and with UACC-257 was > 100 µM (inactive) in each case. Further, the GI50 in the assay with HOP-92 was > 100 µM (inactive); with TK-10 it was > 100 µM (inactive); in the assay with HOP-62, > 100 µM (inactive); in the assay on HCT-116, > 100 µM (inactive); with PC-3 it was 7.6 µM (inactive); in the assay on Hs-578T, > 100 µM (inactive). Further, the GI50 in the assay with SK-OV-3 was > 100 µM (inactive).

As to `CC(C)OC(=O)c1ccc(NCC2=CC(=O)C=CC2=O)cc1`, the GI50 with A498 is 27.2 µM (inactive); in the assay with RPMI-8226, 2.54 µM (inactive); in the assay with OVCAR-8, 15.3 µM (inactive); in the assay on ACHN, 12 µM (inactive); with SNB-19, 29.4 µM (inactive); in the assay with SN12C, 12.9 µM (inactive). Also, the GI50 with SK-MEL-5 is 17.4 µM (inactive); in the assay with RXF 393, 12.8 µM (inactive); in the assay with SF-268 it was 12.3 µM (inactive); in the assay with SF-295 it was 28.2 µM (inactive); in the assay with IGROV-1 it was 13.5 µM (inactive); with UACC-257 it was 14.1 µM (inactive). Moreover, the GI50 in the assay on HOP-92 was 2.48 µM (inactive); in the assay with TK-10, 15.3 µM (inactive); with HOP-62 it was > 95.5 µM (inactive); with HCT-116 it was 14.4 µM (inactive); with PC-3, 13.1 µM (inactive); with Hs-578T it was 18.3 µM (inactive). Moreover, the GI50 in the assay on SK-OV-3 was 42 µM (inactive).

In the case of `O=C(O)C(=Cc1ccc(-c2ccccc2)cc1)C(=O)O`, the GI50 in the assay on A498 was 19.3 µM (inactive); in the assay on RPMI-8226, 4.26 µM (inactive); with OVCAR-8, 16.6 µM (inactive); in the assay with ACHN, 18.6 µM (inactive); in the assay with SNB-19, 13.6 µM (inactive); with SN12C, 11.5 µM (inactive). Moreover, the GI50 with SK-MEL-5 is 11 µM (inactive); with RXF 393, 4.02 µM (inactive); in the assay with SF-268 it was 14.5 µM (inactive); with SF-295 it was 18.6 µM (inactive); with IGROV-1, 23.3 µM (inactive); with UACC-257 it was 11.1 µM (inactive). Further, the GI50 with HOP-92 is 23.8 µM (inactive); in the assay on TK-10, 13.8 µM (inactive); in the assay with HOP-62, 6.75 µM (inactive); in the assay on HCT-116 it was 10.4 µM (inactive); in the assay on PC-3 it was 9.08 µM (inactive); in the assay on Hs-578T, 24.4 µM (inactive). For the same compound, in the assay with SK-OV-3, the GI50 is 12.6 µM (inactive).
